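Exposure lasted 48 hours, with cells grown in 96-well plates and compounds tested at five concentrations. TGI denotes the concentration required for complete inhibition of growth.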
Key:
Test in all cases: NCI anticancer screen, dose series, 48 h
[1] = system: NCI-H460 lung
[2] = system: SK-MEL-5 melanoma
[3] = system: NCI-H23 lung
[4] = system: OVCAR-3 ovarian
[5] = system: ACHN renal
[6] = system: COLO 205 colon
[7] = system: RXF 393 renal
[8] = system: SF-295 CNS
[9] = system: MDA-N
[10] = system: OVCAR-4 ovarian
[11] = system: HOP-62 NSCLC
[12] = system: 786-0 renal
[13] = system: SK-OV-3 ovarian
[14] = system: CAKI-1 renal
[15] = system: M14 melanoma
[16] = system: MDA-MB-435
[17] = system: EKVX NSCLC
[18] = system: HOP-92 NSCLC
[19] = system: NCI-H522 lung
[20] = system: SW-620 colon
[21] = system: T-47D breast
[22] = system: CCRF-CEM leukemia
[23] = system: SF-268 CNS
[24] = system: HCT-15 colon
[25] = system: OVCAR-8 ovarian
[26] = system: HL-60(TB) leukemia
[27] = system: K-562 leukemia
[28] = system: HCC-2998 colon
[29] = system: DU-145 prostate
[30] = system: SK-MEL-28 melanoma
[31] = system: IGROV1 ovarian
[32] = system: U251 CNS
[33] = system: SF-539 CNS
[34] = system: SR leukemia
[35] = system: HCT-116 colon
[36] = system: MALME-3M melanoma
[37] = system: KM12 colon
[38] = system: UACC-257 melanoma
[39] = system: NCI/ADR-RES ovarian
[40] = system: BT-549 breast
[41] = system: UO-31 renal
[42] = system: MCF7 breast
[43] = system: NCI-H226 lung
[44] = system: SN12C renal
[45] = system: A498 renal
[46] = system: SK-MEL-2 melanoma
[47] = system: SNB-19 CNS
[48] = system: LOX IMVI melanoma
[49] = system: MOLT-4 leukemia
[50] = system: HS 578T breast
[51] = system: PC-3 prostate
[52] = system: MDA-MB-231 breast
[53] = system: A549 NSCLC
[54] = system: TK-10 renal
[55] = system: HT29 colon
[56] = system: SNB-75 CNS
[57] = system: OVCAR-5 ovarian
[58] = system: RPMI-8226 leukemia
[59] = system: UACC-62 melanoma

Cc1c(Cl)cc(C(C)(C)C)c(O)c1Cc1c(C)c(Cl)cc(C(C)(C)C)c1O
TGI [1]: 5.03 µM
TGI [2]: 2.29 µM
TGI [3]: 5.13 µM
TGI [4]: 2.22 µM
TGI [5]: 7.64 µM
TGI [6]: 2.48 µM
TGI [7]: 2.44 µM
TGI [8]: 7.54 µM
TGI [9]: 8.71 µM
TGI [10]: 10.3 µM
TGI [11]: 9.87 µM
TGI [12]: 4.57 µM
TGI [13]: 10 µM
TGI [14]: 7.51 µM
TGI [15]: 7.85 µM
TGI [16]: 5.62 µM
TGI [17]: 6.41 µM
TGI [18]: 1.18 µM
TGI [19]: 1.18 µM
TGI [20]: 6.45 µM
TGI [21]: 13.1 µM
TGI [22]: 1.54 µM
TGI [23]: 6.89 µM
TGI [24]: 13.6 µM
TGI [25]: 5.51 µM
TGI [26]: 3.45 µM
TGI [27]: 5.1 µM
TGI [28]: 3.33 µM
TGI [29]: 11.8 µM
TGI [30]: 12.3 µM
TGI [31]: 5.53 µM
TGI [32]: 7.97 µM
TGI [33]: 4.24 µM
TGI [34]: 5.58 µM
TGI [35]: 3.47 µM
TGI [36]: 1.94 µM
TGI [37]: 5.76 µM
TGI [38]: 6.29 µM
TGI [39]: 9.24 µM
TGI [40]: 9.79 µM
TGI [41]: 4.46 µM
TGI [42]: 7.28 µM
TGI [43]: 6.03 µM
TGI [44]: 9.02 µM
TGI [45]: 3.84 µM
TGI [46]: 3.9 µM
TGI [47]: 12.5 µM
TGI [48]: 3.19 µM
TGI [49]: 3.34 µM
TGI [50]: 3.61 µM
TGI [51]: 9.93 µM
TGI [52]: 3.49 µM
TGI [53]: 5.88 µM
TGI [54]: 10 µM
TGI [55]: 6.36 µM
TGI [56]: 5.78 µM
TGI [57]: 14 µM
TGI [58]: 0.707 µM
TGI [59]: 7 µM

CCOC(=O)c1ccc(-c2cccs2)[nH]1
TGI [1]: > 100 µM
TGI [2]: > 100 µM
TGI [3]: > 100 µM
TGI [4]: > 100 µM
TGI [5]: > 100 µM
TGI [6]: > 100 µM
TGI [7]: > 100 µM
TGI [8]: > 100 µM
TGI [9]: > 100 µM
TGI [10]: > 100 µM
TGI [11]: > 100 µM
TGI [12]: > 100 µM
TGI [13]: > 100 µM
TGI [14]: > 100 µM
TGI [15]: > 100 µM
TGI [16]: > 100 µM
TGI [17]: > 100 µM
TGI [18]: > 76.5 µM
TGI [19]: > 100 µM
TGI [20]: > 100 µM
TGI [21]: > 92.1 µM
TGI [22]: > 100 µM
TGI [23]: > 100 µM
TGI [24]: > 31.6 µM
TGI [25]: > 100 µM
TGI [26]: > 100 µM
TGI [27]: > 100 µM
TGI [28]: > 100 µM
TGI [29]: > 100 µM
TGI [30]: > 100 µM
TGI [31]: > 100 µM
TGI [32]: > 100 µM
TGI [33]: > 100 µM
TGI [34]: > 100 µM
TGI [35]: > 100 µM
TGI [36]: > 100 µM
TGI [37]: > 100 µM
TGI [38]: > 100 µM
TGI [39]: > 100 µM
TGI [40]: > 100 µM
TGI [41]: > 89 µM
TGI [42]: > 100 µM
TGI [43]: > 100 µM
TGI [44]: > 100 µM
TGI [45]: > 100 µM
TGI [46]: > 100 µM
TGI [47]: > 100 µM
TGI [48]: > 100 µM
TGI [49]: > 100 µM
TGI [50]: > 100 µM
TGI [51]: > 100 µM
TGI [52]: > 100 µM
TGI [53]: > 100 µM
TGI [54]: > 100 µM
TGI [55]: > 100 µM
TGI [56]: > 100 µM
TGI [57]: > 100 µM
TGI [58]: > 100 µM
TGI [59]: > 100 µM

From PubChem BioAssay (NCI)
